A value given as a limit tells only on which side of the number the result lay.

22 molecules from patent US9663496B2, “AMPK-activating heterocyclic compounds and methods for using the same” (Rigel Pharmaceuticals, Inc., priority 2010, dated 2017) can be followed below.

The target of the test is AMPK. Kind of test: AMPK activation, enzyme-linked immunosorbent assay. The conditions noted are these: EC50 for AMPK activation, ELISA. Type of test: biochemical. Put shortly: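 Activation by each compound is measured using a conventional commercial immunoassay kit.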
On the technique in general: An ELISA detects its analyte on a solid surface through an enzyme-linked reagent.
As a reminder, the EC50 is the concentration needed to bring the measured effect to its halfway point. Take `O=C(c1ccc(C(=O)N2CCN(Cc3ccc(F)cc3)CC2)nc1)N1CCN(Cc2ccc(F)cc2)CC1` [Compound 3, pyridine-2,5-diylbis((4-(4-fluorobenzyl)piperazin-1-yl)methanone)]: the EC50 lay within 500 to 1000 nM.

With `O=C(Nc1ccc(Oc2ccc(F)cc2)nc1)c1ccc(C(=O)N2CCC(Oc3cccc(NC(=O)C4CC4)c3)CC2)nc1` [Compound 433, 6-(4-(3-(cyclopropanecarboxamido)phenoxy)piperidine-1-carbonyl)-N-(6-(4-fluorophenoxy)pyridin-3-yl)nicotinamide], the EC50 is under 500 nM.

`COc1ccc(C(=O)C2CCN(C(=O)c3ccc(C(=O)N[C@H]4CC[C@@H](Oc5ccc(C(F)(F)F)cc5)CC4)nc3)CC2)cc1` [Compound 192, 5-(4-(4-methoxybenzoyl)piperidine-1-carbonyl)-N-((cis)-4-(4-(trifluoromethyl)phenoxy)cyclohexyl) picolinamide]: the 50% effective concentration (EC50) was under 500 nM. Take `O=C(NC1CCN(Cc2ccc(OC(F)(F)F)cc2)CC1)c1ccc(C(=O)N2CCC(S(=O)(=O)c3ccc(F)cc3)CC2)nc1` [Compound 470, 6-(4-(4-fluorophenylsulfonyl)piperidine-1-carbonyl)-N-(1-(4-(trifluoromethoxy)benzyl)piperidin-4-yl)nicotinamide]: the concentration for a half-maximal effect (EC50) is under 500 nM. In turn, `COc1ccc(C(=O)C2CCN(C(=O)c3ccc(C(=O)NC4CCN(Cc5ccc(C#N)cc5)CC4)cn3)CC2)cc1` [Compound 309, N-(1-(4-cyanobenzyl)piperidin-4-yl)-6-(4-(4-methoxybenzoyl)piperidine-1-carbonyl)nicotinamide] had a half-maximal effective concentration (EC50) of under 500 nM. As for `COc1ccc(CN2CCC(NC(=O)c3ccc(C(=O)N4CCC(S(=O)(=O)c5ccc(F)cc5)CC4)nc3)CC2)cc1` [Compound 474, 6-(4-(4-fluorophenylsulfonyl)piperidine-1-carbonyl)-N-(1-(4-methoxybenzyl)piperidin-4-yl)nicotinamide], the figure is 1000 to 5000 nM; as for `N#Cc1ccc(CN2CCC(NC(=O)c3ccc(C(=O)N4CCN(C(=O)c5ccc(C(=O)NC6CCN(Cc7ccc(C#N)cc7)CC6)nc5)CC4)cn3)CC2)cc1` [Compound 75, 5,5′-(piperazine-1,4-diylbis(oxomethylene)) bis(N-(1-(4-cyanobenzyl)piperidin-4-yl)picolinamide)], 1000 to 5000 nM. The result for `COc1cccc(OC2CCCN(C(=O)c3ccc(C(=O)NC4CCN(Cc5ccc(C#N)cc5)CC4)nc3)C2)c1` (stereo not shown) [Compound 277, N-(1-(4-cyanobenzyl)piperidin-4-yl)-5-(3-(3-methoxyphenoxy)piperidine-1-carbonyl)picolinamide] reads under 500 nM. In turn, `COc1ccc(C(=O)C2CCN(C(=O)c3ccc(C(=O)NC4CCN(Cc5cccc(OC(F)(F)F)c5)CC4)cn3)CC2)cc1` [Compound 424, 6-(4-(4-methoxybenzoyl)piperidine-1-carbonyl)-N-(1-(3-(trifluoromethoxy)benzyl)piperidin-4-yl)nicotinamide] came in with a concentration giving a half-maximal response (EC50) of under 500 nM. For the molecule `O=C(Nc1ccc(Oc2ccc(F)cc2)nc1)c1ccc(C(=O)N2CCC(C(=O)c3ccc(N4CCCC4)cc3)CC2)cn1` [Compound 368, N-(6-(4-fluorophenoxy)pyridin-3-yl)-5-(4-(4-(pyrrolidin-1-yl)benzoyl)piperidine-1-carbonyl)picolinamide], the 50% effective concentration (EC50) was under 500 nM. The result for `CC(C)(C)OC(=O)NCCCc1cc(C(=O)N2CCN(Cc3ccc(F)cc3)CC2)cnc1C(=O)NC1CCN(Cc2ccc(C#N)cc2)CC1` [Compound 290, tert-butyl 3-(2-(1-(4-cyanobenzyl)piperidin-4-ylcarbamoyl)-5-(4-(4-fluorobenzyl)piperazine-1-carbonyl)pyridin-3-yl)propylcarbamate] reads under 500 nM. As for `COc1ccc(OC2CCN(C(=O)c3ccc(C(=O)NC4CCN(Cc5ccc(C#N)cc5)CC4)cn3)CC2)c(NC(C)=O)c1` [Compound 383, 6-(4-(2-acetamido-4-methoxyphenoxy)piperidine-1-carbonyl)-N-(1-(4-cyanobenzyl)piperidin-4-yl)nicotinamide], the figure is over 10000 nM; as for `CS(=O)(=O)c1ccc(CN2CCC(NC(=O)c3ccc(C(=O)N4CCC(Oc5ccc(C#N)cc5)CC4)nc3)CC2)cc1` [Compound 214, 6-(4-(4-cyanophenoxy)piperidine-1-carbonyl)-N-(1-(4-(methylsulfonyl)benzyl)piperidin-4-yl)nicotinamide], over 10000 nM; as for `O=C(NC1CCN(Cc2ccc(OC(F)(F)F)cc2)CC1)c1ccc(C(=O)N2CCC(Oc3cccc(NC(=O)C4CC4)c3)CC2)nc1` [Compound 438, 6-(4-(3-(cyclopropanecarboxamido)phenoxy)piperidine-1-carbonyl)-N-(1-(4-(trifluoromethoxy)benzyl)piperidin-4-yl)nicotinamide], under 500 nM. The result for `N#Cc1ccc(CN2CCC(NC(=O)c3ccc(NC4CCN(c5ccc(F)cc5)CC4)cn3)CC2)cc1` [Compound 276, N-(1-(4-cyanobenzyl)piperidin-4-yl)-5-(1-(4-fluorophenyl)piperidin-4-ylamino)picolinamide] reads under 500 nM. `COc1ccc(C(=O)N2CCN(C(=O)c3ccc(C(=O)NC4CCN(Cc5ccc(C#N)cc5)CC4)nc3)CC2)cc1` [Compound 77, N-(1-(4-cyanobenzyl)piperidin-4-yl)-5-(4-(4-methoxybenzoyl)piperazine-1-carbonyl)picolinamide]: the EC50 is under 500 nM.

`COc1ccc(C(=O)C2CCN(C(=O)c3cnc(C(=O)NC4CCN(Cc5ccc(C#N)cc5)CC4)cn3)CC2)cc1` [Compound 211, N-(1-(4-cyanobenzyl)piperidin-4-yl)-5-(4-(4-methoxybenzoyl)piperidine-1-carbonyl)pyrazine-2-carboxamide] had an EC50 of under 500 nM. As for `COc1ccc(CN2CCC(NC(=O)c3ccc(C(=O)N4CCC(C(=O)c5ccc(OC)cc5)CC4)nc3)CC2)cc1` [Compound 318, 6-(4-(4-methoxybenzoyl)piperidine-1-carbonyl)-N-(1-(4-methoxybenzyl)piperidin-4-yl)nicotinamide], the concentration giving a half-maximal response (EC50) is under 500 nM. The molecule `N#Cc1ccc(CN2CCC(NC(=O)c3ccc(C(=O)N4CCC(Oc5ccc(SC(F)(F)F)cc5)CC4)nn3)CC2)cc1` [Compound 436, N-(1-(4-cyanobenzyl)piperidin-4-yl)-6-(4-(4-(trifluoromethylthio)phenoxy)piperidine-1-carbonyl)pyridazine-3-carboxamide] showed a concentration for a half-maximal effect (EC50) of under 500 nM.

`COc1ccc(CN2CCC(NC(=O)c3ccc(C(=O)N4CCC(C(=O)c5ccc(F)c(F)c5)CC4)cn3)CC2)cc1` [Compound 329, 5-(4-(3,4-difluorobenzoyl)piperidine-1-carbonyl)-N-(1-(4-methoxybenzyl)piperidin-4-yl)picolinamide] showed a 50% effective concentration (EC50) of under 500 nM. As to `N#Cc1ccc(CN2CCC(NC(=O)c3ccc(C(=O)N4CCN(c5ccc(C(=O)C(F)(F)F)cc5)CC4)cn3)CC2)cc1` [Compound 263, N-(1-(4-cyanobenzyl)piperidin-4-yl)-5-(4-(4-(2,2,2-trifluoroacetyl)phenyl)piperazine-1-carbonyl)picolinamide], the concentration giving a half-maximal response (EC50) was under 500 nM.

The molecule `N#Cc1ccc(CN2CCC(NC(=O)c3ccc(C(=O)N4CCC(Oc5ccc(S(=O)(=O)C(F)(F)F)cc5)CC4)nc3)C(F)C2)cc1` (stereo in doubt) [Compound 451, N-((3S,4R)-1-(4-cyanobenzyl)-3-fluoropiperidin-4-yl)-6-(4-(4-(trifluoromethylsulfonyl)phenoxy)piperidine-1-carbonyl)nicotinamide] yielded an EC50 of under 500 nM.
